# Experimental data reported in patent US11702442B2, “Cyclic dinucleotide compounds as sting agonists” (The Regents of the University of California, priority 2019, dated 2023).
# Entries after “also recorded” stand apart in the source; their conditions may differ.
# Assays:
# STING pathway = assay: IRF3 phosphorylation in RAW 264.7 cells (immunoblot pIRF3 vs β-actin); type: cell-based, murine; settings: 2 h after transfection; for IRF3 phosphorylation (pIRF3), concentration dependence: RAW 264.7, 1, 5 and 10 μM CDN
# Description: FIGS. 2A-2B show IRF3 phosphorylation induced by c-di-GMP and its analogues. […] 1, 5 and 10 μM of each CDN was used to transfect RAW 264.7 cells. Cells were lysed with NP-40 lysis buffer 2 h post transfection, 20 μg of total protein was loaded on SDS-polyacrylamide gel. Proteins were transferred to PVDF membrane after gel electrophoresis, and immunoblotted against pIRF3 and β-actin. […] The y-axis indicates relative intensity of pIRF3 compare to β-actin.
# To analyze the immunostimulatory effects of all synthetic CDNs in greater detail, RAW 264.7 cells were treated with various concentrations of c-di-GMP, c-di-tzGMP, c-di-thGMP, c-GthGMP and c-GtzGMP and the phosphorylation of IRF3 to pIRF3 was evaluated. CDNs were thus transfected into RAW 264.7 murine cells with digitonin as described in previous studies.[7b,16] Cells were then lysed with NP-40 buffer 2 h after transfection, and total protein was collected for immunoblotting against phosphorylated IRF3 (pIRF3) and β-actin. […] Two other biological replicates produced similar trends (See FIG. S2 in Yi et al, ChemBioChem, Volume 21 (2020)).
# Immunoblotting. RAW 264.7 cells were plated on 24-well plates (5×10^5 cells per well) and incubate at 37° C. for 48 h. Cells were then transfected with 1-10 μM of CDN in a permeabilization buffer containing 10 μg/mL digitonin, 50 mM HEPES, pH 7, 100 mM KCl, 3 mM MgCl2, 85 mM sucrose, 1 mM ATP, 0.1 mM DTT, 0.2% BSA for 30 mins at 37° C., then incubated with regular growth medium for 2 h. Cells were lysed with NP-40 lysis buffer containing protease inhibitor cocktail (Roche), PhosSTOP (Roche) and PMSF, and total protein was collected and quantified by BCA assay. Protein extracts were resolved by SDS-PAGE with 7.5% gel and transferred to PVDF membrane. Proteins were detected with the following primary antibodies: rabbit anti-pIRF3 monoclonal antibody (Cell Signaling Technology), mouse anti-β actin monoclonal antibody (Sigma-Aldrich).
# rocR = target: T1, rocR (Pseudomonas aeruginosa, UniProt Q9HX69); assay: rocR-mediated CDN hydrolysis monitored by HPLC; type: biochemical, P. aeruginosa; settings: for k2 / k3 / k1 / k2 (cleavage reaction) / time to complete cleavage by rocR: 100 nM rocR, 37° C.; for k2 / k3: Table 3; for k1: enzyme/substrate association; for order of gradually reduced rocR hydrolysis rate: FIG. 10F
# T1 construct: made in house; host or cells: Escherichia coli BL21(DE3)
# T1 sequence (Q9HX69 whole entry): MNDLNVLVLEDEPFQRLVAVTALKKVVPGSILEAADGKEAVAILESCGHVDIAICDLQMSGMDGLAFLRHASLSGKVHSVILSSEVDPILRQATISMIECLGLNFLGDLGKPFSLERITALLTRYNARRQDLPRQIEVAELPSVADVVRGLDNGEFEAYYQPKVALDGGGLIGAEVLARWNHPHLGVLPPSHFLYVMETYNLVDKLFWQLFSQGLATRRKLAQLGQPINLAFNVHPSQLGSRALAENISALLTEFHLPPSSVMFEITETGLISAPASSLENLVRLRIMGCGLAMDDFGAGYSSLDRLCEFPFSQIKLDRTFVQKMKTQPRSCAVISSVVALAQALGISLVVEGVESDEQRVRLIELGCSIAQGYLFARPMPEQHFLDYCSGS
# Source text: [1a,27] rocR is a PDE that contains an EAL domain and specifically recognizes and cleaves c-di-GMP into the linear dinucleotide pGpG. […] [28a,29]
# RocR is reported to follow Michaelis-Menten kinetics. [27c,28a] Scheme 2a was therefore used to analyze the reaction kinetics, where k1 and k−1 describe the enzyme/substrate association and dissociation, respectively, while k2 reflects the cleavage reaction. Equations (10)-(13) were thus used to extract the rate constants. When “asymmetrical” mixed c-di-GMP analogues are treated with rocR, the enzyme may, in principle, recognize and cleave either phosphodiester bonds, producing pN1pN2 and pN2pN1. Assuming the two products result from different binding orientation of the heterodimeric CDNs, Scheme 2b is therefore introduced to model the cleavage reactions, where k1, k−1 and k2 reflect the association/dissociation and cleavage of the heterodimeric CDN in one orientation, respectively, and k3, k−3 and k4 reflect the other. Equations (14)-(19) were used to extract the rate constants.
# Equations(10)-(19) d[S]/dt=−k1[E][S]+k−1[ES] (10) d[E]/dt=−k1[E][S]+k−1[ES]+k2[ES] (11) d[P]/dt=k2[ES] (12) d[ES]/dt=k1[E][S]−k−1[ES]−k2[ES] (13) d[S]/dt=−k1[E][S]+k−1[ES1]−k3[E][S]+k−3[ES2] (14) d[P1]/dt=k2[ES1] (15) d[P2]/dt=k4[ES2] (16) d[E]/dt=−(k1+k3)[E][S]+(k−1+k2)[ES1]+[…][ES2]] (17) d[ES1]/dt=k1[E][S]−k−1[ES1]−k2[ES1] (18) d[ES2]/dt=k3[E][S]−k−3[ES2]−k4[ES2] (19)
# CDN hydrolysis with rocR. […] of CDN was incubated with 100 nM of rocR in a buffer containing 100 mM Tris-HCI, pH 8, 20 mM KCI, 25 mM MgCl2 at 37° C. Aliquots of the reaction mixture were taken out at designated time points and quenched with 100 mM CaCl2. All aliquots were filtered before subjected to reverse-phase HPLC analysis. The reaction mixture was separated by Sepax Bio C-18 column (250×10 mm, 5 µm particle size) with a gradient of 0.1-15% of 10 mM NH4OAc, pH7 in Me0H in 12 minutes at 25° C. or 50° C. (only for reactions of c-GtzGMP and c-di-tzGMP) on an Agilent 1200 series HPLC system (Agilent Technologies).
# Data Analysis and curve fitting. […] The relative concentrations were plotted against time.
SMILES,"IRF3 phosphorylation (pIRF3), concentration dependence (STING pathway)",k2 (rocR) [s⁻¹],k3 (rocR) [s⁻¹],k1 (rocR) [M⁻¹ s⁻¹],order of gradually reduced rocR hydrolysis rate (rocR),"products of rocR-mediated cleavage (rocR; mixed CDNs, HPLC)","IRF3 phosphorylation (pIRF3) (STING pathway; RAW 264.7, 1 μM CDN)","IRF3 phosphorylation (pIRF3) (STING pathway; RAW 264.7, 5 and 10 μM CDN)",k2 (cleavage reaction) (rocR) [s⁻¹],time to complete cleavage by rocR (rocR) [min],cleavage by rocR (rocR; after 40 min of incubation with rocR)
Nc1nc2c([C@@H]3O[C@@H]4COP(=O)(O)O[C@H]5[C@@H](O)[C@H](n6cnc7c(=O)[nH]c(N)nc76)O[C@@H]5COP(=O)(O)O[C@H]4[C@H]3O)scc2c(=O)[nH]1 [c-G^thGMP],no clear dose-response,0.033 ± 0.001,5 ± 0.57,21000 ± 1000,"c-di-GMP, c-di-^tzGMP, c-G^tzGMP, c-G^thGMP and lastly c-di-^thGMP",a single product,–,–,–,–,–
"Nc1nc2c(ncn2[C@@H]2O[C@@H]3COP(=O)(O)O[C@H]4[C@@H](O)[C@H](n5cnc6c(=O)[nH]c(N)nc65)O[C@@H]4COP(=O)(O)O[C@H]3[C@H]2O)c(=O)[nH]1 [c-di-GMP, reference compound]",–,1.15 ± 0.21,0.76 ± 0.03,3.96e+06 ± 70000,"c-di-GMP, c-di-^tzGMP, c-G^tzGMP, c-G^thGMP and lastly c-di-^thGMP",–,did not induce obvious IRF3 activation,comparable efficiency in inducing IRF3 phosphorylation,0.76 ± 0.03,~3,–
Nc1nc2c([C@@H]3O[C@@H]4COP(=O)(O)O[C@H]5[C@@H](O)[C@H](c6scc7c(=O)[nH]c(N)nc67)O[C@@H]5COP(=O)(O)O[C@H]4[C@H]3O)scc2c(=O)[nH]1 [c-di-^thGMP],did not trigger observable IRF3 activation at any of the concentrations tested,–,–,–,"c-di-GMP, c-di-^tzGMP, c-G^tzGMP, c-G^thGMP and lastly c-di-^thGMP",–,–,–,–,–,No cleaved c-di-^thGMP was observed; also recorded: did not produce observable amounts of cleaved c-di-^thGMP products
Nc1nc2c([C@@H]3O[C@@H]4COP(=O)(O)O[C@H]5[C@@H](O)[C@H](c6snc7c(=O)[nH]c(N)nc67)O[C@@H]5COP(=O)(O)O[C@H]4[C@H]3O)snc2c(=O)[nH]1 [c-di-^tzGMP],Increasing amounts of phosphorylated IRF3,0.099 ± 0.07,0.83 ± 0.55,43000 ± 20000,"c-di-GMP, c-di-^tzGMP, c-G^tzGMP, c-G^thGMP and lastly c-di-^thGMP",–,–,–,0.83 ± 0.55,≤ 20,–
